# Measured values published in US10858331B1, “Ester nitrates derivatives of aromatic aldehydes with multiple pharmalogic properties to treat sickle cell disease” (VIRGINIA COMMONWEALTH UNIVERSITY, priority 2013, dated 2020).
# Legend:
# [1] = NO release study (Griess assay) in presence of L-cysteine; settings: for NO2− release after 1 hour / NO2− release after 16 hours: 2 mM compound solution mixed with 36 mM L-cysteine, phosphate buffer pH 7.4, 37° C., anaerobic; for NO release in the form of NO2− (rank among the compounds): comparison of the four nitrate esters
# Procedure: Griess assay was performed on the left-shifting nitrate ester compounds (TD-1, […], TD-8-1 and, TD-9-1) to measure the release of NO. Griess assay is a colorimetric assay, used for detection of NO in the form of nitrite ions (NO2^−). NO released in solution is highly unstable, with a half-life of 1 to 30 s. It gets rapidly oxidized to NO2^− which is detected by the Griess reagent. In this method, NO2^−, first reacts with the sulfanilamide present in the reagent to form a transient diazonium salt. […] Sodium nitrite (NaNO2) was used as a standard for the Griess assay. NaNO2 samples in deionized water were prepared of concentrations within the linear range of the assay (1-100 μM). The samples were incubated for 30 min at 37° C., after which Griess reagent was added and absorbance was measured at 540 nm. The measured absorbances were used to obtain a standard curve (FIG. 3). For the measurement of NO2^− release for all the test compounds (TD-1, TD-7-1, TD-8-1 and TD-9-1), the absorbances were extrapolated from the standard NaNO2 curve.
# In this assay, a solution of the test compound (1 mL of a 2 mM solution in 0.1 M phosphate buffer (pH 7.4)) was mixed thoroughly with a freshly prepared solution of L-cysteine (1 mL of a 36 mM solution in 0.1 M phosphate buffer, pH 7.4), and incubated at 37° C., for 1 and 16 h under anaerobic conditions. After exposure to air for 10 min at 25° C., an aliquot of the Griess reagent (1 mL) [freshly prepared by mixing equal volumes of 1.0% sulfanilamide (prepared and stored in aqueous 5% phosphoric acid) and 0.1% N-naphthylethylenediamine dihydrochloride in water] was added to an equal volume (1 mL) of each incubation solution after mixing. After 10 min, absorbance was measured at 540 nm using a Hewlett Packard (Agilent) 8453 UV-visible Spectroscopy. NaNO2 solutions of 1-100 μM concentrations were used to prepare a standard nitrite curve of absorbance […] versus concentration (μM). The NO released (quantitated as NO2^− release in μM) was calculated from the standard nitrite curve by extrapolation of the absorbance. […]
# Hb = molecular target: T1, Hb (Homo sapiens, UniProt P68871+P69905); experiment: Oxygen equilibrium curve (OEC) study with normal whole blood (AA); format: cell-based; settings: 2 mM compound, 1.5 h incubation; for P50: 37° C.; for ΔP50: versus DMSO control
# T1 construct: normal whole blood (AA); from tissue; host or cells: normal whole blood (AA), red blood cells
# T1 sequence (P69905 2-142 limits assumed): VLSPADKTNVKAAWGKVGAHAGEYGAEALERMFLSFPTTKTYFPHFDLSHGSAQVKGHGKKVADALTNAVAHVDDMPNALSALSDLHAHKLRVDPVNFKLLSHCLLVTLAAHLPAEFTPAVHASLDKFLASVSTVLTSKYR
# T1 sequence (P68871 2-147 limits assumed): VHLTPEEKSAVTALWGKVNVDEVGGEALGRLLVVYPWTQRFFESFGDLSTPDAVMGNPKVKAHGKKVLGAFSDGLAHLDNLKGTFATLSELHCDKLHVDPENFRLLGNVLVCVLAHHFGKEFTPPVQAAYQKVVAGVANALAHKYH
# Procedure: (§1) Studies were performed on compounds TD-7, TD-7-1, TD-8, TD-8-1, TD-9 and TD-9-1 using 100 mM stock solution in DMSO and normal whole blood (AA). TD-7, TD-8 and TD-9 are compounds with a hydroxymethyl group on the pyridine ring, while TD-7-1, TD-8-1 and TD-9-1 are the respective nitrate ester derivatives. The whole blood samples had hematocrit values ranging from 29-36%, and cell-free purified Hb of 10-12 g/dL in the absence or presence of effectors solubilized in DMSO at 2 mM or in some cases with varying compound concentration. The blood samples were incubated in an IL 237 tonometer (Instrumentation Laboratories, Inc., Lexington, Mass.) for about 5-7 min at 37° C. against a gas mixture containing O2 concentrations of 0.804%, 2.935% and 5.528% and allowed to equilibrate at O2 tensions of 6, 20 and 40 mmHg. After equilibration, the sample was removed via syringe and aspirated into a ABL 700 series table top automated blood gas analyzer (Radiometer America, Inc., Westlake, Ohio) to determine total hemoglobin (tHb), hematocrit (Hct), pH, pCO2, partial pressure of oxygen (pO2), and the Hb oxygen saturation values (sO2). Similar procedures were followed for concentration and time dependence studies. The measured values of pO2 and sO2 at each oxygen saturation level were then subjected to a non-linear regression analysis using the program Scientist (Micromath, Salt Lake City, Utah) with the following equation: […]
# This equation was used to calculate P50 and Hill coefficient (N) values. Corresponding control experiments without the test compound (P50control) but containing DMSO were also performed.
# cell-free Hb = molecular target: T2, cell-free Hb (Homo sapiens, UniProt P68871+P69905); experiment: OEC study with normal cell-free Hb; format: biochemical; settings: cell-free Hb 12 mg/mL, 2 mM compound; for N (Hill coefficient) / P50: n = 1; for ΔP50: versus control P50 12.5
# T2 construct: Hemoglobin was prepared from centrifuging human blood; from tissue; host or cells: human blood (red cells lysed, Hb purified on DEAE sephacel)
# T2 sequence (P69905 2-142 limits assumed): as the sequence (P69905 2-142 limits assumed) above
# T2 sequence (P68871 2-147 limits assumed): as the sequence (P68871 2-147 limits assumed) above
# Procedure: as §1
# Hemoglobin was prepared from centrifuging human blood at 2500 rpms for 20 min at 4° C. The supernatant solution, debris and plasma were discarded from the centrifuge bottles, leaving behind RBCs. The RBCs were washed thrice with an excess volume of 0.9% NaCl, and once with 1.0% NaCl, each time centrifuging and discarding the supernatant solution. The RBCs were pooled together into a chilled flask and hemolyzed to free Hb by adding 1-2 volume excess of 50 mM Tris buffer, pH 8.6 (containing EDTA). The mixture was allowed to stand in ice for 30 min with occasional stirring. The Hb solution was centrifuged at 10,000 rpm for 2 h at 4° C. The supernatant Hb solution was pooled into a chilled flask and NaCl (40-60 mg/mL Hb solution) was slowly added with stirring. Hemoglobin solution was centrifuged at 10,000 rpm for 2 h at 4° C. to remove any cell stroma remnants. The clear supernatant Hb solution was pooled into a chilled flask and the “syrupy” pellet was discarded. Hemoglobin solution was dialyzed against 50 mM Tris buffer, pH 8.6 (containing EDTA) at 4° C. to remove NaCl and/or other low molecular weight impurities. Strips of standard cellulose dialysis tubing that had been washed 3-4 times and boiled for 10 min in deionized water were used for dialysis. The dialyzed Hb was further purified by ion-exchange chromatography using DEAE sephacel to exclude 2,3-DPG. The resin was equilibrated with 50 mM Tris buffer, pH 8.6, and the Hb solution was run through the column with 50 mM Tris buffer, pH 8.6 (containing EDTA). The pooled fractions were concentrated with an Amicon stirred cell (Amicon, Model 402), to a final HbA concentration of about 80-120 mg/mL. Concentrated HbA was stored at −80° C.
# As a result of the low left-shifting activities of TD-8 and TD-9, as well as the nitrate ester derivatives, we further evaluated the activity of the compounds TD-1, TD-7, TD-7-1, TD-8, and TD-9 using cell-free Hb (devoid of any proteins, enzymes, plasma and cell membranes) to determine whether plasma protein or RBC membrane could have any effect on compound biological activity. Previous studies have shown limited effect of plasma protein and RBC membrane on SHMF activity. The same tonometry procedure used on whole blood was used with the cell-free hemoglobin using 2 mM compound and 12 mg/mL of Hb.
# SS cells = experiment: In vitro RBC anti-sickling (morphological) study with SS cells; format: cell-based, human
# Procedure: In vitro RBC morphological (anti-sickling) analysis was conducted at the Children's Hospital of Philadelphia (by Drs. Toshio Asakura and Osheiza Abdulmalik). The anti-sickling effects of 5HMF, TD-7 HCl, TD-7, TD-1, and TD-7-1 were studied by incubating suspensions of SS cells in the absence or presence of three different concentrations of the effectors in the presence of air for 1 h at 37° C. followed by incubation under 4% oxygen at 37° C. for 5 h. All samples were pre-incubated for 1 h with various compounds and then incubated under 4% O2 for 5 h. […] Table 5 represents the concentrations of the effectors along with the % inhibition of sickling cells. The hemolysates that had been prepared from SS cells after incubation with test compounds were also subjected to cation-exchange HPLC as previously reported (Abdulmalik et al., 2005).
SMILES,NO2− release after 1 hour [1],NO2− release after 16 hours [1],N (Hill coefficient) (Hb),P50 (Hb),ΔP50 (Hb),N (Hill coefficient) (cell-free Hb),P50 (cell-free Hb),ΔP50 (cell-free Hb),"inhibition at 500 µM (SS cells; Homo sapiens, 0.5 mM, SS cells, 1 h air then 4% O2, 37° C., 5 h, read-out: Inhibition of sickled cells)","inhibition at 1000 µM (SS cells; Homo sapiens, 1.0 mM, SS cells, 1 h air then 4% O2, 37° C., 5 h, read-out: Inhibition of sickled cells)","inhibition at 2000 µM (SS cells; Homo sapiens, 2.0 mM, SS cells, 1 h air then 4% O2, 37° C., 5 h, read-out: Inhibition of sickled cells)",Hemolysis of RBC (SS cells; at higher drug concentrations),NO release in the form of NO2− (rank among the compounds) [1],"Anti-sickling effect (in words) (SS cells; SS cells, 4% O2, 5 h, concentration not given, in comparison with 5HMF)"
"COc1ccc(OCc2cccc(CO[N+](=O)[O-])n2)c(C=O)c1 [TD-7-1, (6-((2-Formyl-4-methoxyphenoxy)methyl)pyridin-2-yl)methyl nitrate]",7.61 µM,59.25 µM,1.7 ± 0.1^c†,23.4 ± 1.6^c† mmHg,−7.9 mmHg,2.1,7.7 mmHg,−3.9 mmHg,72%,100%,100%,hemolyzed the RBC at higher drug concentrations,–,–
"COc1ccc(C=O)cc1OCc1cccc(CO[N+](=O)[O-])n1 [TD-8-1, (6-((5-Formyl-2-methoxyphenoxy)methyl)pyridin-2-yl)methyl nitrate]",–,102.54 µM,2.1^d†,30.8^d† mmHg,−0.5 mmHg,–,–,–,–,–,–,–,most release,–
"O=Cc1ccc(CO[N+](=O)[O-])o1 [TD-1, 5-Nitrooxymethyl furfural]",4.02 µM,–,1.9 ± 0.1^c†,27.4 ± 2.3^c† mmHg,−3.9 mmHg,2.0,8.4 mmHg,−4.1 mmHg,–,–,–,–,least release,only a modest decrease in the anti-sickling effect
"COc1ccc(C=O)c(OCc2cccc(CO[N+](=O)[O-])n2)c1 [TD-9-1, (6-((2-Formyl-5-methoxyphenoxy)methyl)pyridin-2-yl)methyl nitrate]",–,78.66 µM,1.9^d†,28.6^d† mmHg,−2.7 mmHg,–,–,–,–,–,–,–,–,–
